# According to ChEMBL document CHEMBL2028040, “Malaria Box”:
# Columns and labels:
# Plasmodium falciparum [1] = experiment: MMV: Inhibition of Plasmodium falciparum 3D7 at 5uM compound concentration.; format: functional
# Plasmodium falciparum [2] = experiment: MMV: Inhibition of Plasmodium falciparum 3D7 (EC50).; format: functional, organism-based
# Trypanosoma cruzi = experiment: MMV: Inhibition of Trypanosoma cruzi (Tulahuen C4 LacZ) (Chagas in vitro).; format: functional, organism-based
# [3] = system: Trypanosoma brucei brucei; experiment: MMV: Inhibition of Trypanosoma brucei brucei (Squib 427) (HAT in vitro).; format: functional, organism-based
# [4] = system: Trypanosoma brucei rhodesiense; experiment: MMV: Inhibition of Trypanosoma brucei rhodesiense (STIB 900) (HAT in vitro).; format: functional, organism-based
# Leishmania infantum = experiment: MMV: Inhibition of Leishmania infantum (MHOM/MA/BE/67) in vitro.; format: functional, organism-based
# [5] = MMV: Cytotoxicity against human fibroblasts (MRC-5) cells.; conditions: MRC-5 cells (human fibroblasts)
SMILES,inhibition at 5 µM (Plasmodium falciparum [1]),EC50 (Plasmodium falciparum [2]),IC50 (Trypanosoma cruzi),IC50 [3],IC50 [4],IC50 (Leishmania infantum),IC50 [5]
O=[N+]([O-])c1ccc(C=NNc2nc3ccccc3[nH]2)cc1,99%,0.142 µM,> 32 µM,> 32 µM,> 32 µM,16.2 µM,> 32 µM
CCCN(CCC)CCCNC(=O)c1cc2c(-c3ccc(OC)c(OC)c3)nn(C)c2s1,98%,1.43 µM,27.5 µM,> 32 µM,14.6 µM,16 µM,> 32 µM
O=C(NCCCN1CCC(N2CCCCC2)CC1)C1=Cc2cc(Br)ccc2OC1,99%,0.563 µM,4.22 µM,0.805 µM,0.859 µM,4.03 µM,12 µM
CCOc1cc(Cl)c(C(C)NC(=O)c2ccccc2)cc1OCC (stereo unspecified),96%,1.37 µM,> 32 µM,> 32 µM,> 32 µM,> 32 µM,> 32 µM
COc1ccc(Nc2nc(N/N=C/c3ccc(O)cc3)nc(Nc3ccc([N+](=O)[O-])cc3)n2)cc1,98%,0.532 µM,18.6 µM,14.7 µM,9.88 µM,21.5 µM,> 32 µM
CCOc1ccc(C2N(C)c3ccccc3N2C)cc1,72%,0.941 µM,3.1 µM,> 32 µM,> 32 µM,25.4 µM,15.5 µM
O=C(CCc1ccco1)NC1CCN(CC2(c3ccc(Cl)cc3)CCC2)CC1,96%,1.14 µM,16.6 µM,2.89 µM,1.01 µM,19 µM,> 32 µM
COc1ccc2nc(C)cc(Nc3cccc(O)c3)c2c1,98%,0.969 µM,15 µM,4.41 µM,5.08 µM,16 µM,> 32 µM
CCOc1ccc(-n2cc(-c3ccccc3)c3c(SCc4cc(C)ccc4C)ncnc32)cc1,97%,1.71 µM,> 32 µM,> 32 µM,25 µM,> 32 µM,> 32 µM
O=C(NCC1Cc2cccc(-c3ccncc3)c2O1)c1csc2c1CCCC2 (stereo unspecified),87%,1.72 µM,5.16 µM,16.5 µM,13.9 µM,> 32 µM,28.5 µM
FC(F)(F)c1cccc(CNC2CCN(CCc3ccccc3)CC2)c1,96%,0.685 µM,15.7 µM,2.73 µM,1.31 µM,16.6 µM,> 32 µM
COc1ccc(C2NCCc3c2[nH]c2ccccc32)cc1CN1CCN(c2ccc(F)cc2)CC1 (stereo unspecified),97%,0.934 µM,2.75 µM,2.78 µM,0.246 µM,1.19 µM,3.94 µM
Cc1ccc2nc(C)cc(Nc3cccc(C(F)(F)F)c3)c2c1,98%,1.17 µM,5.96 µM,4.12 µM,3.86 µM,3.06 µM,28.9 µM
COc1ccc(CCN2CCC(CN(C)Cc3cnn(-c4ccccc4)c3)CC2)cc1,96%,1.43 µM,6.43 µM,0.86 µM,0.254 µM,12 µM,18.6 µM
COc1cccc(-c2nn(C)c3sc(C(=O)NCCN4CCN(c5ccccc5F)CC4)cc23)c1,91%,1.3 µM,> 32 µM,16 µM,5.31 µM,> 32 µM,> 32 µM
CCCc1c(CC)c(=N)c2ccccc2n1C,69%,0.242 µM,0.415 µM,21 µM,16.2 µM,> 32 µM,30.6 µM
O=C(NCc1ccco1)C1CCN(S(=O)(=O)c2ccc(Br)cc2)CC1,93%,0.939 µM,> 32 µM,> 32 µM,> 32 µM,> 32 µM,> 32 µM
Cc1ccc(-c2cc(C(=O)Nc3ccc(S(=O)(=O)N4CCCCC4)cc3)[nH]n2)c(O)c1,94%,0.535 µM,> 32 µM,> 32 µM,> 32 µM,> 32 µM,> 32 µM
COc1ccc(CCNC(=O)c2cc(S(=O)(=O)N3CC(C)CC(C)C3)ccc2Sc2ccc(F)cc2)cc1OC (stereo unspecified),97%,0.632 µM,> 32 µM,> 32 µM,> 32 µM,> 32 µM,> 32 µM
COc1ccc(C2c3ccc4ccccc4c3Oc3ncn(CCCN(C)C)c(=N)c32)cc1 (stereo unspecified),,1.23 µM,1.01 µM,0.259 µM,0.223 µM,1.01 µM,3.49 µM
COc1ccc(CCn2c(=N)c(C(=O)NCc3cccnc3)cc3c(=O)n4cccc(C)c4nc32)cc1,,0.373 µM,13.2 µM,4 µM,3.6 µM,12.7 µM,> 32 µM

SMILES,inhibition at 5 µM (Plasmodium falciparum [1]),EC50 (Plasmodium falciparum [2]),IC50 (Trypanosoma cruzi),IC50 [3],IC50 [4],IC50 (Leishmania infantum),IC50 [5]
COc1ccc2c(c1)OC(O)(C(F)(F)C(F)(F)F)CC2=O (stereo unspecified),,0.283 µM,16.1 µM,> 32 µM,17.1 µM,25.4 µM,25.6 µM
O=C(NNc1cc(N2CCCC2)nc(N2CCCC2)n1)c1ccccc1,,1.33 µM,13.7 µM,> 32 µM,16.5 µM,25.4 µM,> 32 µM
COc1ccc(-c2c(C)nn3c(N)c(C#N)cnc23)cc1OC,,0.477 µM,> 32 µM,> 32 µM,> 32 µM,> 32 µM,27.6 µM
Nc1nc(Nc2cccc(F)c2)nc2ccccc12,,1 µM,20.2 µM,27.3 µM,16.8 µM,16 µM,> 32 µM
Cc1cc(Nc2ccc(Cl)cc2)n2nc(C(F)(F)F)nc2n1,,0.212 µM,> 32 µM,> 32 µM,> 32 µM,> 32 µM,> 32 µM
CN1CCN(c2ncnc3c2[nH]c2ccc(Cl)cc23)CC1,,1.19 µM,30.8 µM,14.6 µM,11 µM,21.5 µM,> 32 µM
Cc1cc(N(C)C)nc(Nc2ccc(NC(=O)Nc3ccccc3)cc2)n1,,1.15 µM,1.03 µM,5.54 µM,1.25 µM,4.32 µM,23.8 µM
Cc1cc(NC(=O)c2cccc(C(F)(F)F)c2)n(-c2nc(-c3ccc4c(c3)OCO4)cs2)n1,,0.959 µM,> 32 µM,> 32 µM,> 32 µM,16.2 µM,> 32 µM
CC1(c2ccccc2)Nc2ccccc2-c2nc3ccccc3n21 (stereo unspecified),,1.73 µM,19.1 µM,17.1 µM,10.3 µM,> 32 µM,> 32 µM
Cc1ccc(-c2cc3c(SCC(=O)Nc4cc(C(F)(F)F)ccc4Cl)nccn3n2)cc1,,0.0928 µM,> 32 µM,> 32 µM,> 32 µM,> 32 µM,> 32 µM
COCCNCC(O)Cn1c2ccc(Cl)cc2c2cc(Cl)ccc21 (stereo unspecified),,1.01 µM,3.89 µM,0.711 µM,0.357 µM,2.97 µM,4.81 µM
Cc1cccc(-n2ncc3c(O)nc(-n4nc(C)cc4NC(=O)c4cc5ccccc5o4)nc32)c1,,0.929 µM,0.234 µM,0.481 µM,0.305 µM,4.32 µM,0.653 µM
CCOc1ccccc1CN1CCc2nc3cc(C(C)(C)C)nn3c(O)c2C1,,1.01 µM,> 32 µM,28.9 µM,> 32 µM,> 32 µM,> 32 µM
Nc1ccn([C@@H]2O[C@H](CO)[C@@H](O)[C@H]2O)c(=O)n1 [CYTIDINE],,0.385 µM,> 32 µM,> 32 µM,> 32 µM,> 32 µM,> 32 µM
COc1ccc(-c2cc3c(SCC(=O)Nc4cc(C(F)(F)F)ccc4Cl)nccn3n2)cc1,,0.0899 µM,> 32 µM,> 32 µM,> 32 µM,16.2 µM,> 32 µM
Cc1ccc(Nc2nc(NCCO)c3ccccc3n2)cc1C,,0.428 µM,2.99 µM,8.22 µM,3.83 µM,2.52 µM,11.4 µM
CC(C)CNC(=O)c1c(N)n(CCc2ccccc2F)c2nc3ccccc3nc12,,0.832 µM,> 32 µM,> 32 µM,> 32 µM,> 32 µM,> 32 µM
N=c1n(CCN2CCCCC2)c2ccccc2n1CC(=O)c1ccc(Cl)c(Cl)c1,,1.24 µM,4.48 µM,4 µM,1.1 µM,4.06 µM,10.6 µM
O=C(NC1CCN(Cc2ccccc2)CC1)c1cc2nc(-c3ccc(Cl)s3)cc(C(F)(F)F)n2n1,,0.959 µM,> 32 µM,> 32 µM,> 32 µM,16 µM,> 32 µM
COc1cccc(C2(C)Nc3ccccc3-c3nc4ccccc4n32)c1 (stereo unspecified),,1.15 µM,13.4 µM,15 µM,14.5 µM,> 32 µM,26.4 µM
COc1ccc(Nc2nc(NCc3ccccc3)c3ccccc3n2)cc1,,0.589 µM,3.55 µM,3.84 µM,4.03 µM,1.01 µM,12.4 µM
